Measured values reported in patent publication US7423159B2, “Agent for preventing or treating neuropathy” (Takeda Pharmaceutical Company Limited, priority 2002, dated 2008).

Row | Compound | melting point
1 | COP(=O)(Cc1ccc(NC(=O)/C=C/c2cnn(C)c2-c2ccccc2)cc1)OC | 219 to 220 °C
2 | CCOP(=O)(Cc1ccc(NC(=O)/C=C/c2cn[nH]c2-c2ccc(F)cc2)cc1)OCC | 181 to 182 °C
3 | COP(=O)(Cc1ccc(NC(=O)/C=C/c2cnn(C)c2-c2ccc(C(F)(F)F)cc2)cc1)OC | 212 to 213 °C
4 | CCOP(=O)(Cc1ccc(NC(=O)/C=C/c2cnn(C)c2-c2ccc(C(F)(F)F)cc2)cc1)OCC | 200 to 201 °C
5 | COP(=O)(Cc1ccc(NC(=O)/C=C/c2cnn(C)c2-c2ccccc2F)cc1)OC | 220 to 221 °C
6 | COP(=O)(Cc1ccc(NC(=O)/C=C/c2cnn(C)c2-c2ccoc2)cc1)OC | 176 to 177 °C
7 | COP(=O)(Cc1ccc(NC(=O)/C=C/c2cnn(C)c2-c2cccs2)cc1)OC | 247 to 248 °C
8 | CCOP(=O)(Cc1ccc(NC(=O)/C=C/c2cnn(C)c2-c2ccccc2F)cc1)OCC | 238 to 240 °C
9 | CCOP(=O)(Cc1ccc(NC(=O)/C=C/c2cnn(C)c2-c2cccnc2)cc1)OCC | 211 to 214 °C
10 | CCOP(=O)(Cc1ccc(NC(=O)/C=C/c2cnn(C)c2C)cc1)OCC | 228 to 230 °C
11 | CCOP(=O)(Cc1ccc(NC(=O)/C=C/c2cnn(C)c2)cc1)OCC | 201 to 202 °C
12 | COP(=O)(Cc1ccc(NC(=O)/C=C/c2cnn(C)c2-c2ccc(Br)cc2)cc1)OC | 212 to 214 °C
13 | CCOP(=O)(Cc1ccc(NC(=O)/C=C/c2cnn(C)c2-c2ccc(Br)cc2)cc1)OCC | 229 to 231 °C
14 | COP(=O)(Cc1ccc(NC(=O)/C=C/c2cnn(C)c2-c2cccc3ccccc23)cc1)OC | 207 to 209 °C
15 | CCOP(=O)(Cc1ccc(NC(=O)/C=C/c2cnn(C)c2-c2cccc3ccccc23)cc1)OCC | 229 to 231 °C
16 | COP(=O)(Cc1ccc(NC(=O)/C=C/c2cnn(C)c2-c2cccc(F)c2)cc1)OC | 224 to 226 °C
17 | CCOP(=O)(Cc1ccc(NC(=O)/C=C/c2cnn(C)c2-c2cccc(F)c2)cc1)OCC | 205 to 206 °C
18 | COP(=O)(Cc1ccc(NC(=O)/C=C/c2cnn(C)c2-c2ccc(C)cc2)cc1)OC | 207 to 209 °C
19 | CCOP(=O)(Cc1ccc(NC(=O)/C=C/c2cnn(C)c2-c2ccc(C)cc2)cc1)OCC | 243 to 245 °C
20 | CCOP(=O)(Cc1cccc(NC(=O)/C=C/c2cnn(C)c2-c2ccc(F)cc2)c1)OCC | 170 to 172 °C
21 | CCOP(=O)(Cc1ccccc1NC(=O)/C=C/c1cnn(C)c1-c1ccc(F)cc1)OCC | 168 to 169 °C

Row | Compound | melting point
22 | CCOP(=O)(OCC)c1ccc(NC(=O)/C=C/c2cnn(C)c2-c2ccc(F)cc2)cc1 | 174 to 176 °C
23 | CCOP(=O)(CCc1ccc(NC(=O)/C=C/c2cnn(C)c2-c2ccc(F)cc2)cc1)OCC | 157 to 158 °C
24 | CCOP(=O)(Cc1ccc(NC(=O)/C=C/c2cnn(C)c2-c2ccc(F)cc2)c(C)c1)OCC | 154 to 155 °C
25 | CCOP(=O)(Cc1ccc(NC(=O)/C=C/c2cnn(Cc3ccccc3)c2-c2ccc(F)cc2)cc1)OCC | 207 to 208 °C
26 | CCn1ncc(/C=C/C(=O)Nc2ccc(CP(=O)(OC)OC)cc2)c1-c1ccc(F)cc1 | 187 to 189 °C
27 | CCOP(=O)(Cc1ccc(NC(=O)/C=C/c2cnn(CC)c2-c2ccc(F)cc2)cc1)OCC | 226 to 227 °C
28 | COP(=O)(Cc1ccc(NC(=O)/C=C/c2c(C)nn(C)c2-c2ccc(F)cc2)cc1)OC | 195 to 198 °C
29 | CCOP(=O)(Cc1ccc(NC(=O)/C=C/c2c(C)nn(C)c2-c2ccc(F)cc2)cc1)OCC | 159 to 160 °C
30 | COc1ccc(-c2c(/C=C/C(=O)Nc3ccc(CP(=O)(OC)OC)cc3)cnn2C)cc1 | 199 to 200 °C
31 | COP(=O)(Cc1ccc(NC(=O)/C=C/c2cnn(C)c2-c2ccco2)cc1)OC | 201 to 202 °C
32 | CCOP(=O)(Cc1ccc(NC(=O)/C=C/c2cnn(C)c2-c2ccco2)cc1)OCC | 195 to 196 °C
33 | CCOP(=O)(OCC)C(OC)c1ccc(NC(=O)/C=C/c2cnn(C)c2-c2ccc(F)cc2)cc1 (stereo not drawn) | 200 to 201 °C
34 | CCOP(=O)(OCC)C(O)c1ccc(NC(=O)/C=C/c2cnn(C)c2-c2ccc(F)cc2)cc1 (stereo not drawn) | 194 to 195 °C
35 | CCOP(=O)(Cc1ccc(NC(=O)/C=C/c2cn(C)nc2-c2ccc(F)cc2)cc1)OCC | 197 to 198 °C
36 | CCOP(=O)(Cc1ccc(NC(=O)/C=C/c2c(-c3ccc(F)cc3)cnn2C)cc1)OCC | 138 to 139 °C
37 | CCOP(=O)(Cc1ccc(NC(=O)/C=C/c2nn(C)cc2-c2ccc(F)cc2)cc1)OCC | 203 to 204 °C
38 | CCOP(=O)(Cc1ccc(NC(=O)CCc2cnn(C)c2-c2ccc(F)cc2)cc1)OCC | 143 to 144 °C
39 | COP(=O)(Cc1ccc(NC(=O)CCc2cnn(C)c2-c2ccc(F)cc2)cc1)OC | 142 to 143 °C
40 | COP(=O)(Cc1ccc(NC(=O)/C=C/c2cnn(C)c2-c2cccc(Cl)c2)cc1)OC | 248 to 249 °C
41 | COP(=O)(Cc1ccc(NC(=O)/C=C/c2cncn2-c2ccc(F)cc2)cc1)OC | 108 to 109 °C
42 | CCOP(=O)(Cc1ccc(NC(=O)/C=C/c2nncn2-c2ccc(F)cc2)cc1)OCC | 217 to 218 °C

Row | Compound | melting point
43 | CCOP(=O)(Cc1ccc(NC(=O)/C=C/c2cnn(C)c2-c2cccc(Cl)c2)cc1)OCC | 214 to 216 °C
44 | COP(=O)(Cc1ccc(NC(=O)/C=C/c2snnc2-c2ccc(F)cc2)cc1)OC | 196 to 197 °C
45 | CCOP(=O)(Cc1ccc(NC(=O)/C=C\c2cnn(C)c2-c2ccc(OC)cc2)cc1)OCC | 187 to 188 °C
46 | COc1ccc(-c2c(/C=C\C(=O)Nc3ccc(CP(=O)(OC)OC)cc3)cnn2C)cc1 | 172 to 173 °C
47 | COP(=O)(Cc1ccc(NC(=O)/C=C/c2cnn(C)c2-c2ccc(Cl)cc2)cc1)OC | 209 to 210 °C
48 | CCOP(=O)(Cc1ccc(NC(=O)CCc2cnn(-c3ccccc3)c2-c2ccccc2)cc1)OCC | 157 to 159 °C
49 | CCOC(=O)Cc1ccc(NC(=O)CCc2cnn(-c3ccccc3)c2-c2ccccc2)cc1 [Example 81, N-[4-(Ethoxycarbonylmethyl)phenyl]-3-(1,5-diphenyl-1H-pyrazol-4-yl)propionamide] | 143 to 144 °C
50 | COC(=O)c1ccc(NC(=O)CCc2cnn(-c3ccccc3)c2-c2ccccc2)cc1 [Example 82, N-[4-(Methoxycarbonyl)phenyl]-3-(1,5-diphenyl-1H-pyrazol-4-yl)propionamide] | 196 to 197 °C
51 | O=C(O)Cc1ccc(NC(=O)CCc2cnn(-c3ccccc3)c2-c2ccccc2)cc1 [Example 83, (4-{[3-(1,5-diphenyl-1H-pyrazol-4-yl)propanoyl]amino}phenyl)acetic acid] | 199 to 201 °C
52 | CCCc1nnc(Cc2ccc(NC(=O)/C=C/c3cnn(C)c3-c3ccc(F)cc3)cc2)o1 [Example 85, (2E)-3-[5-(4-fluorophenyl)-1-methyl-1H-pyrazol-4-yl]-N-{4-[(5-propyl-1,3,4-oxadiazol-2-yl)methyl]phenyl}acrylamide] | 154 to 155 °C
53 | Cn1ncc(/C=C/C(=O)Nc2ccc(Cc3n[nH]c(=O)o3)cc2)c1-c1ccc(F)cc1 [Example 86, (2E)-3-[5-(4-Fluorophenyl)-1-methyl-1H-pyrazol-4-yl]-N-{4-[(5-oxo-4,5-dihydro-1,3,4-oxadiazol-2-yl)methyl]phenyl}acrylamide] | 262 to 263 °C
54 | Cn1ncc(/C=C/C(=O)Nc2ccc(Cc3nnn[nH]3)cc2)c1-c1ccc(F)cc1 [Example 87, (2E)-3-[5-(4-Fluorophenyl)-1-methyl-1H-pyrazol-4-yl]-N-[4-(1H-tetrazol-5-ylmethyl)phenyl]acrylamide] | 252 to 253 °C
55 | CCc1nnc(CCc2ccc(NC(=O)/C=C/c3cnn(C)c3-c3ccc(F)cc3)cc2)o1 [Example 88, (2E)-N-{4-[2-(5-Ethyl-1,3,4-oxadiazol-2-yl)ethyl]phenyl}-3-[5-(4-fluorophenyl)-1-methyl-1H-pyrazol-4-yl]acrylamide] | 167 to 168 °C
56 | Cn1ncc(/C=C/C(=O)Nc2ccc(CCc3nnco3)cc2)c1-c1ccc(F)cc1 [Example 89, (2E)-3-[5-(4-Fluorophenyl)-1-methyl-1H-pyrazol-4-yl]-N-{4-[2-(1,3,4-oxadiazol-2-yl)ethyl]phenyl}acrylamide] | 177 to 178 °C
57 | CCc1nc(CCc2ccc(NC(=O)/C=C/c3cnn(C)c3-c3ccc(F)cc3)cc2)cs1 [Example 90, (2E)-N-{4-[2-(2-Ethyl-1,3-thiazol-4-yl)ethyl]phenyl}-3-[5-(4-fluorophenyl)-1-methyl-1H-pyrazol-4-yl]acrylamide] | 190 to 191 °C
58 | Cn1ncc(/C=C/C(=O)Nc2ccc(OCc3cscn3)cc2)c1-c1ccc(F)cc1 [Example 92, (2E)-3-[5-(4-Fluorophenyl)-1-methyl-1H-pyrazol-4-yl]-N-[4-(1,3-thiazol-4-ylmethoxy)phenyl]acrylamide] | 171 to 172 °C
59 | CCc1nc(COc2ccc(NC(=O)/C=C/c3cnn(C)c3-c3ccc(F)cc3)cc2)cs1 [Example 93, (2E)-N-{4-[(2-Ethyl-1,3-thiazol-4-yl)methoxy]phenyl}-3-[5-(4-fluorophenyl)-1-methyl-1H-pyrazol-4-yl]acrylamide] | 98 to 99 °C
60 | Cn1ncc(/C=C/C(=O)Nc2ccc(OCc3nnco3)cc2)c1-c1ccc(F)cc1 [Example 94, (2E)-3-[5-(4-Fluorophenyl)-1-methyl-1H-pyrazol-4-yl]-N-[4-(1,3,4-oxadiazol-2-ylmethoxy)phenyl]acrylamide] | 154 to 155 °C
61 | Cc1coc(Cc2ccc(NC(=O)/C=C/c3cnn(C)c3-c3ccc(F)cc3)cc2)n1 [Example 95, (2E)-3-[5-(4-Fluorophenyl)-1-methyl-1H-pyrazol-4-yl]-N-{4-[(4-methyl-1,3-oxazol-2-yl)methyl]phenyl}acrylamide] | 220 to 221 °C
62 | Cn1ncc(/C=C/C(=O)Nc2ccc(Cc3ccccn3)cc2)c1-c1ccc(F)cc1 [Example 96, (2E)-3-[5-(4-Fluorophenyl)-1-methyl-1H-pyrazol-4-yl]-N-[4-(pyridin-2-ylmethyl)phenyl]acrylamide] | 215 to 216 °C
63 | Cc1nnc(COc2ccc(NC(=O)/C=C/c3cnn(C)c3-c3ccc(F)cc3)cc2)o1 [Example 97, (2E)-3-[5-(4-Fluorophenyl)-1-methyl-1H-pyrazol-4-yl]-N-{4-[(5-methyl-1,3,4-oxadiazol-2-yl)methoxy]phenyl}acrylamide] | 117 to 118 °C
